Results taken from patent US9926264B2, “Phenylcarbamate derivatives as formyl peptide receptor modulators” (Allergan, Inc., priority 2013, dated 2018).

Biological target: T1, FPR2 (Homo sapiens, UniProt P25090)
T1 construct: expressed in transfected cells; host or cells: CHO-Gα16 cells
T1 sequence (P25090 1-351): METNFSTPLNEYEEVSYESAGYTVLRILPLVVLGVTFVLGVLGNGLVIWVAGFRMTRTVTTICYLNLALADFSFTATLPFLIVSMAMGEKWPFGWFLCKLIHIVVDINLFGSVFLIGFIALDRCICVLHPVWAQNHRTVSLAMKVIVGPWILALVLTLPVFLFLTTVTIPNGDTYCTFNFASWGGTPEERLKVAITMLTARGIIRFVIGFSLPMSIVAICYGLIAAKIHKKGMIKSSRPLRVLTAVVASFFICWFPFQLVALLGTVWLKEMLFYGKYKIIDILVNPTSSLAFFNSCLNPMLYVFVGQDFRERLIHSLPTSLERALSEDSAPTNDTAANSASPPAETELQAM
Experiment: compound-induced calcium activity on FLIPR Tetra in CHO-Gα16 cells stably expressing FPR2
Assay type: cell-based
Settings: for Emax: efficacy value in brackets after EC50, read-out: FPR2 Gα16-CHO (% eff); for EC50: tested 0.61 to 10,000 nM
Procedure: CHO-Gα16 cells stably expressing FPR2 were cultured in (F12, 10% FBS, 1% PSA, 400 μg/ml geneticin and 50 μg/ml hygromycin) and HEK-Gqi5 cells stable expressing FPR1 were cultured in (DMEM high glucose, 10% FBS, 1% PSA, 400 μg/ml geneticin and 50 μg/ml hygromycin). In general, the day before the experiment, 18,000 cells/well were plated in a 384-well clear bottom poly-D-lysine coated plate. The following day the screening compound-induced calcium activity was assayed on the FLIPR^Tetra. The drug plates were prepared in 384-well microplates using the EP3 and the MultiPROBE robotic liquid handling systems. Compounds were tested at concentrations ranging from 0.61 to 10,000 nM. Results are expressed as EC50 (nM) and % efficacy values.

| SMILES | Emax [%] | EC50 [nM] |
| --- | --- | --- |
| CCN(CC(=O)OC(C)(C)C)C(=O)[C@H](CC(C)C)OC(=O)Nc1ccc(C(F)(F)F)cc1 [Compound 13, tert-Butyl {Ethyl[(2S)-4-methyl-2-({[4-(trifluoromethyl)phenyl]carbamoyl}oxy)pentanoyl]amino}acetate] | 99 | 16.6 |
| CCN(Cc1nnn[nH]1)C(=O)[C@H](CC(C)C)OC(=O)Nc1ccc(C(F)(F)F)cc1 [Compound 32, (1S)-1-{[ethyl(1H-tetrazol-5-ylmethyl)amino]carbonyl}-3-methylbutyl [4-(trifluoromethyl)phenyl]carbamate] | 100 | 0.66 |
| CC(C)C[C@H](OC(=O)Nc1ccc(C(F)(F)F)cc1)C(=O)NCc1nnn[nH]1 [Compound 15, (2S)-4-methyl-1-oxo-1-[(1H-tetrazol-5-ylmethyl)amino]pentan-2-yl [4-(trifluoromethyl)phenyl]carbamate] | 96 | 3.6 |
| CC(C)C[C@H](OC(=O)Nc1ccc(C(F)(F)F)cc1)C(=O)NCS(=O)(=O)O [Compound 28, ({(2S)-4-methyl-2-[({[4-(trifluoromethyl)phenyl]amino}carbonyl)oxy]pentanoyl}amino)methanesulfonic acid] | 85 | 4.3 |
| CCOP(=O)(CNC(=O)[C@H](CC(C)C)OC(=O)Nc1ccc(C(F)(F)F)cc1)OCC [Compound 5, Diethyl ({[(2S)-4-methyl-2-({[4-(Trifluoromethyl)phenyl]carbamoyl}oxy)pentanoyl]amino}methyl)phosphonate] | 101 | 6.7 |
| CCOP(=O)(CNC(=O)[C@H](CC(C)C)OC(=O)Nc1ccc(Br)cc1)OCC [Compound 8, Diethyl ({[(2S)-2-{[(4-bromophenyl)carbamoyl]oxy}-4-methylpentanoyl]amino}methyl)phosphonate] | 100 | 1.8 |
| CC(C)C[C@H](OC(=O)Nc1ccc(C(F)(F)F)cc1)C(=O)N(CC(=O)O)C(C)C [Compound 38, (Isopropyl{(2S)-4-methyl-2-[({[4-(trifluoromethyl)phenyl]amino}carbonyl)oxy]pentanoyl}amino)acetic acid] | 107 | 0.66 |
| CC(C)C[C@H](OC(=O)Nc1ccc(C(F)(F)F)cc1)C(=O)N(C)CC(=O)OC(C)(C)C [Compound 12, tert-Butyl {Methyl[(2S)-4-methyl-2-({[4-(trifluoromethyl)phenyl]carbamoyl}oxy)pentanoyl]amino}acetate] | 100 | 24.8 |
| CC(C)C[C@H](OC(=O)Nc1ccc(C(F)(F)F)cc1)C(=O)NCCO [Compound 6, (2S)-1-[(2-Hydroxyethyl)amino]-4-Methyl-1-oxopentan-2-yl [4-(trifluoromethyl)phenyl]carbamate] | 75 | 146 |
| CCN(CC(=O)O)C(=O)[C@H](CC(C)C)OC(=O)Nc1ccc(C(F)(F)F)cc1 [Compound 26, {Ethyl[(2S)-4-methyl-2-({[4-(trifluoromethyl)phenyl]carbamoyl}oxy)pentanoyl]amino}acetic acid] | 98 | 0.29 |
| CCCN(CC(=O)OC(C)(C)C)C(=O)[C@H](CC(C)C)OC(=O)Nc1ccc(Br)cc1 [Compound 9, tert-Butyl {[(2S)-2-{[(4-Bromophenyl)carbamoyl]oxy}-4-methylpentanoyl](propyl)amino}acetate] | 104 | 4.4 |
| CC(C)C[C@H](OC(=O)Nc1ccc(Br)cc1)C(=O)NCCNC(=O)OC(C)(C)C [Compound 33, (1S)-1-[({2-[(tert-butoxycarbonyl)amino]ethyl}amino)carbonyl]-3-methylbutyl (4-bromophenyl)carbamate] | 103 | 397 |
| CCCN(CC(=O)O)C(=O)[C@H](CC(C)C)OC(=O)Nc1ccc(C(F)(F)F)cc1 [Compound 37, [{(2S)-4-methyl-2-[({[4-(trifluoromethyl)phenyl]amino}carbonyl)oxy]pentanoyl}(propyl)amino]acetic acid] | 102 | 1.2 |
| CC(C)C[C@H](OC(=O)Nc1ccc(C(F)(F)F)cc1)C(=O)OC(C)(C)C [Intermediate 2, tert-Butyl (2S)-4-Methyl-2-({[4-(trifluoromethyl)phenyl]carbamoyl}oxy)pentanoate] | 56 | 10000 |
| CC(C)C[C@H](OC(=O)Nc1ccc(C(F)(F)F)cc1)C(=O)N(CC(=O)OC(C)(C)C)C(C)C [Compound 30, tert-Butyl (Isopropyl{(2S)-4-methyl-2-[({[4-(trifluoromethyl)phenyl]amino}carbonyl)oxy]pentanoyl}amino)acetate] | 76 | 301 |
| CC(=O)OCCNC(=O)[C@H](CC(C)C)OC(=O)Nc1ccc(C(F)(F)F)cc1 [Compound 18, 2-{[(2S)-4-Methyl-2-({[4-(trifluoromethyl)phenyl]carbamoyl}oxy)pentanoyl]amino}ethyl acetate] | 89 | 195 |

Second part, the compound after the results:

| Emax [%] | EC50 [nM] | SMILES |
| --- | --- | --- |
| 85 | 8.6 | CC(C)C[C@H](OC(=O)Nc1ccc(Br)cc1)C(=O)O [Intermediate 3, (2S)-2-{[(4-Bromophenyl)carbamoyl]oxy}-4-methylpentanoic acid] |
| 103 | 1.43 | O=C(Nc1ccc(Br)cc1)O[C@@H](Cc1ccccc1)C(=O)O [Intermediate 4a, (2S)-2-({[(4-bromophenyl)amino]carbonyl}oxy)-3-phenylpropanoic acid] |
| 101 | 0.84 | CC(C)C[C@H](OC(=O)Nc1ccc(Br)cc1)C(=O)NCC(=O)O [Compound 19, {[(2S)-2-{[(4-Bromophenyl)carbamoyl]oxy}-4-methylpentanoyl]amino}acetic acid] |
| 105 | 0.32 | CC(C)C[C@H](OC(=O)Nc1ccc(Br)cc1)C(=O)N(CC(=O)O)C(C)C [Compound 23, {[(2S)-2-{[(4-Bromophenyl)carbamoyl]oxy}-4-methylpentanoyl](propan-2-yl)amino}acetic acid] |
| 95 | 1.3 | O=C(O)CNC(=O)[C@H](Cc1ccccc1)OC(=O)Nc1ccc(Br)cc1 [Compound 40, {[(2S)-2-({[(4-bromophenyl)amino]carbonyl}oxy)-3-phenylpropanoyl]amino}acetic acid] |
| 103 | 0.83 | O=C(Nc1ccc(Br)cc1)O[C@@H](Cc1ccccc1)C(=O)NCc1nnn[nH]1 [Compound 35, (1S)-1-benzyl-2-oxo-2-[(1H-tetrazol-5-ylmethyl)amino]ethyl (4-bromophenyl)carbamate] |
| 103 | 11 | CC(C)C[C@H](OC(=O)Nc1ccc(Br)cc1)C(=O)N(CC(=O)OC(C)(C)C)C(C)C [Compound 10, tert-Butyl {[(2S)-2-{[(4-Bromophenyl)carbamoyl]oxy}-4-methylpentanoyl](propan-2-yl)amino}acetate] |
| 98 | 35 | CC(C)C[C@H](OC(=O)Nc1ccc(Br)cc1)C(=O)NCCO [Compound 7, (2S)-1-[(2-Hydroxyethyl)amino]-4-methyl-1-oxopentan-2-yl (4-bromophenyl)carbamate] |
| 91 | 0.44 | CCCN(CC(=O)O)C(=O)[C@H](CC(C)C)OC(=O)Nc1ccc(Br)cc1 [Compound 22, {[(2S)-2-{[(4-Bromophenyl)carbamoyl]oxy}-4-methylpentanoyl](propyl)amino}acetic acid] |
| 89 | 526 | CC(C)C[C@H](OC(=O)Nc1ccc(Br)cc1)C(=O)NCC(=O)OC(C)(C)C [Compound 1, tert-Butyl {[(2S)-2-{[(4-Bromophenyl)carbamoyl]oxy}-4-methylpentanoyl]amino}acetate] |
| 97 | 8 | CCN(CC(=O)OC(C)(C)C)C(=O)[C@H](CC(C)C)OC(=O)Nc1ccc(Br)cc1 [Compound 11, tert-Butyl {[(2S)-2-{[(4-Bromophenyl)carbamoyl]oxy}-4-methylpentanoyl](ethyl)amino}acetate] |
| 98 | 0.41 | CN(CC(=O)O)C(=O)[C@H](Cc1ccccc1)OC(=O)Nc1ccc(Br)cc1 [Compound 41, {[(2S)-2-({[(4-Bromophenyl)amino]carbonyl}oxy)-3-phenylpropanoyl](methyl)amino}acetic acid] |
| 99 | 125 | CC(C)C[C@H](OC(=O)Nc1ccc(Br)cc1)C(=O)NCCNS(=O)(=O)N(C)C [Compound 42, (1S)-1-{[(2-{[(Dimethylamino)sulfonyl]amino}ethyl)amino]carbonyl}-3-methylbutyl (4-bromophenyl)carbamate] |
| 101 | 1.3 | CC(C)C[C@H](OC(=O)Nc1ccc(Br)cc1)C(=O)NCc1nnn[nH]1 [Compound 14, (2S)-4-Methyl-1-oxo-1-[(1H-tetrazol-5-ylmethyl)amino]pentan-2-yl (4-bromophenyl)carbamate] |
| 97 | 59 | CC(C)C[C@H](OC(=O)Nc1ccc(Br)cc1)C(=O)N(C)CCO [Compound 4, (2S)-1-[(2-Hydroxyethyl)(methyl)amino]-4-methyl-1-oxopentan-2-yl (4-bromophenyl)carbamate] |
